Results taken from ChEMBL document CHEMBL1201862, “PubChem BioAssay data set” (2004).
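Compound exposure: 48 hours, 5 concentrations, 96-well plates. GI50 is the concentration that inhibits growth by half.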 The source made the active and inactive calls. Rule as the data show it: active = GI50 up to about 1.1 µM and inactive = higher.

Assays:
Assay in all cases: DTP human tumour cell line panel, 48 h
KM-20L2 = system: KM-20L2
HOP-18 = system: HOP-18
SNB-78 = system: SNB-78
LXFL 529 = system: LXFL 529
M19-MEL = system: M19-MEL
DMS-114 = system: DMS-114
DMS-273 = system: DMS-273
XF498 = system: XF498
RXF 631 = system: RXF 631

Measured: GI50

CN(C)c1ccc(/C=C/c2cc[n+](C)c3ccccc23)cc1
inactive: KM-20L2 3.04 µM | HOP-18 3.47 µM | SNB-78 7.59 µM | LXFL 529 1.23 µM | M19-MEL 1.44 µM | DMS-114 2.3 µM | DMS-273 2.39 µM

COC(=O)c1cc(C(=O)OC)c(CC(=O)C(=O)NC2C3CC4CC(C3)CC2C4)nc1CC(=O)C(=O)NC1C2CC3CC(C2)CC1C3 (centres undefined)
inactive: KM-20L2 > 100 µM | HOP-18 > 100 µM | SNB-78 > 100 µM | LXFL 529 > 100 µM | M19-MEL > 100 µM | DMS-114 > 100 µM | DMS-273 > 100 µM

Cc1cc2c(C)n(Cc3ccc(Cl)cc3Cl)nc2c(C#N)c1C
inactive: KM-20L2 36.5 µM | HOP-18 40.8 µM | SNB-78 24.4 µM | XF498 15.8 µM | LXFL 529 59.6 µM | M19-MEL 73.8 µM | DMS-114 36.4 µM | DMS-273 50.8 µM

O=C1c2ccccc2N2OC3(N4CCOCC4)CCCC3C12c1ccccc1 (centres undefined)
inactive: KM-20L2 > 100 µM | HOP-18 > 100 µM | SNB-78 > 100 µM | XF498 > 100 µM | LXFL 529 > 100 µM | M19-MEL > 100 µM | DMS-114 > 100 µM | DMS-273 > 100 µM

Clc1cccc(C2SCc3nc4ccccc4n32)c1 (centres undefined)
inactive: HOP-18 18.5 µM | SNB-78 22.1 µM | LXFL 529 19.9 µM | M19-MEL 19.4 µM

O=C(Nc1ccc(Br)cc1)C(=O)C(C(=O)c1ccc(Cl)c(Cl)c1)C1OC(=O)c2ccccc21 (centres undefined)
inactive: KM-20L2 33 µM | HOP-18 14.4 µM | SNB-78 17.1 µM | XF498 13.8 µM | LXFL 529 9.98 µM | M19-MEL 15 µM | DMS-114 10.9 µM | DMS-273 19.1 µM

COc1ccc(OC)c(NC(=O)C(=O)C(C(C)=O)c2nc3ccc(Cl)cc3nc2O)c1 (centres undefined)
inactive: KM-20L2 > 50 µM | HOP-18 45.2 µM | SNB-78 > 50 µM | XF498 > 50 µM | LXFL 529 > 50 µM | M19-MEL > 50 µM | RXF 631 > 50 µM | DMS-114 > 50 µM | DMS-273 > 50 µM

COC1(OC)CC2CCCCC2=C(C)N1S(=O)(=O)c1ccccc1 (centres undefined)
inactive: KM-20L2 > 100 µM | HOP-18 > 100 µM | SNB-78 > 100 µM | XF498 > 100 µM | LXFL 529 > 100 µM | M19-MEL > 100 µM | RXF 631 > 100 µM | DMS-273 > 100 µM

COC(=O)/C=C(C)/C=C/C1OC(C)OCC1O (centres undefined)
inactive: KM-20L2 > 100 µM | SNB-78 > 100 µM | LXFL 529 > 100 µM | M19-MEL > 100 µM | DMS-114 > 100 µM | DMS-273 > 100 µM

Nc1nc2c(ncn2Cc2ccccc2CCO)c(=O)[nH]1
inactive: KM-20L2 > 100 µM | XF498 > 100 µM | LXFL 529 > 100 µM | M19-MEL > 100 µM | RXF 631 > 100 µM | DMS-114 > 100 µM | DMS-273 > 100 µM

Oc1nc2cc(Cl)ccc2nc1/C(=N\Nc1ccccc1)C(O)c1ccc(Cl)c(Cl)c1 (centres undefined)
inactive: KM-20L2 > 100 µM | SNB-78 > 100 µM | LXFL 529 > 100 µM | M19-MEL > 100 µM | RXF 631 > 100 µM | DMS-114 > 100 µM | DMS-273 > 100 µM

Cc1csc2nc(-c3ccncc3)cn12
inactive: KM-20L2 > 65 µM | HOP-18 > 57.9 µM | SNB-78 > 100 µM | XF498 > 100 µM | LXFL 529 > 51.3 µM | M19-MEL > 59.6 µM | RXF 631 > 88.3 µM | DMS-114 > 42.1 µM | DMS-273 19.7 µM

N#Cc1cc([N+](=O)[O-])ccc1NC(=O)C(F)(F)F
inactive: KM-20L2 > 74.5 µM | HOP-18 > 85.9 µM | SNB-78 > 100 µM | XF498 > 100 µM | LXFL 529 > 100 µM | M19-MEL > 100 µM | DMS-114 > 40.8 µM | DMS-273 > 100 µM

CCN(CC)c1ccc(/N=N/c2ccc(-c3nc4cccn(C)c-4n3)cc2)cc1
inactive: KM-20L2 5.32 µM | HOP-18 40.1 µM | SNB-78 16.7 µM | XF498 14.1 µM | LXFL 529 3.95 µM | M19-MEL 5.38 µM | RXF 631 3.41 µM | DMS-114 3.61 µM | DMS-273 3.18 µM

Cc1ccc(SC(C)/C=C/NNC2=NN=C(c3ccccc3)C(c3ccccc3)N2)cc1 (centres undefined)
inactive: KM-20L2 14 µM | HOP-18 24.1 µM | SNB-78 66.7 µM | LXFL 529 25.8 µM | M19-MEL 36.6 µM | DMS-114 28.8 µM | DMS-273 32.5 µM

COC(=O)/C(=N/NC(C)(C)C)C(C(=O)C=C(C)C)C(=O)C(=O)Nc1ccc(Cl)cc1C (centres undefined)
inactive: KM-20L2 > 100 µM | SNB-78 > 10 µM | XF498 > 100 µM | LXFL 529 > 100 µM | M19-MEL > 100 µM | DMS-114 > 100 µM

COC(=O)C(=O)C(C(C)=O)C(=O)NCc1ccc(OC)c(OC)c1 (centres undefined)
inactive: KM-20L2 > 100 µM | HOP-18 > 100 µM | SNB-78 > 100 µM | XF498 > 100 µM | LXFL 529 > 100 µM | M19-MEL > 100 µM | RXF 631 > 100 µM | DMS-114 > 100 µM | DMS-273 > 100 µM

CC1(C)OC2C(=O)OC(COCc3ccccc3)C2O1 (centres undefined)
inactive: KM-20L2 > 100 µM | HOP-18 > 100 µM | SNB-78 > 100 µM | LXFL 529 > 100 µM | M19-MEL > 100 µM | RXF 631 > 100 µM | DMS-273 > 100 µM
